Values quoted from earlier work as cited in US20080161385A1, “Composition Inhibiting Sex Hormone-Binding Globulin” (FUJI OIL COMPANY, LIMITED, priority 2004, published 2008).

Test system: SHBG
Settings: cell test, literature

O=c1c(-c2ccc(O)cc2)coc2cc(O)cc(O)c12 [genistein]
Production of SHBG: stimulates production of SHBG
